# Test results published in patent US20260116921A1, “PEPTIDE INHIBITORS OF INTERLEUKIN-23 RECEPTOR AND THEIR USE TO TREAT INFLAMMATORY DISEASES” (priority 2018, published 2026).
# Numbered stars: 1 amine (or outer) side, 2 acyl side, 3 side chain; on linkers, the order of the positions; unused ones are H or OH. Bridge positions count the residues as written; N and C are the ends. Square brackets hold non-standard residues; d marks the D form. Peptide text beside a SMILES is read from it. Trp(7-Me) = Cc1cccc2c(C[C@H](N)C(=O)O)c[nH]c12; Abu(4-yl) = O=C([C@H](CC[*:3])N[*:1])[*:2]; 2Nal = N[C@@H](Cc1ccc2ccccc2c1)C(=O)O; AEF = NCCOc1ccc(C[C@H](N)C(=O)O)cc1; αMeF = C[C@](N)(Cc1ccccc1)C(=O)O; Cit = NC(=O)NCCC[C@H](N)C(=O)O; Pen = CC(C)(S)[C@H](N)C(=O)O; αMeK = C[C@](N)(CCCCN)C(=O)O; Aib = CC(C)(N)C(=O)O; βAla = NCCC(=O)O; Sar = CNCC(=O)O
# Biological target: T1, IL-23R (Homo sapiens, UniProt Q5VWK5)
# T1 sequence (Q5VWK5 24-629): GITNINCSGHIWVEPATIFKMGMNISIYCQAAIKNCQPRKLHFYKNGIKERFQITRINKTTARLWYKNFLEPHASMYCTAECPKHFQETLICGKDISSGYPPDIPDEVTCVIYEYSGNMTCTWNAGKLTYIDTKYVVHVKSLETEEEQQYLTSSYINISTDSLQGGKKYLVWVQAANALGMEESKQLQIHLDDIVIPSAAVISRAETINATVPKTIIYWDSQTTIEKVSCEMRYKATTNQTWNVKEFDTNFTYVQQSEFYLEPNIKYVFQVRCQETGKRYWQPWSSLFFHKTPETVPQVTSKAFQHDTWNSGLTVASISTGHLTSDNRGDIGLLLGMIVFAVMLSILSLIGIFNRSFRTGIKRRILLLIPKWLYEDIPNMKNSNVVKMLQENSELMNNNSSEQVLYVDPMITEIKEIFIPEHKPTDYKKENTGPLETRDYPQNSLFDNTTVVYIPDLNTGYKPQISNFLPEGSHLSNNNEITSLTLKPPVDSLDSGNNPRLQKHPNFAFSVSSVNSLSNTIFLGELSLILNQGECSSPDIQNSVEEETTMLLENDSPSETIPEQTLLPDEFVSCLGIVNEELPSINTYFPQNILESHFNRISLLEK
# Assay: DB cells IL23R pSTAT3 cell assay (pStat3 HTRF)
# Assay type: cell-based
# Details: not given
# Description: Human ELISA indicates the IL23-IL23R competitive binding assay described below, Rat ELISA indicates the rat IL-23R competitive binding ELISA assay described below, and pStat3HTRF indicates the DB cells IL-23R pSTAT3 cell assay described below. The peptides depicted in Table E1 are cyclized via a disulfide bridge formed between two Pen residues in these peptides. The peptides depicted in Table E2 are cyclized via a thioether bond between the indicated amino acid residues. Table E2 provides an illustrative structure depicting thioether cyclization, which is indicated in the table by the term “cyclo,” with the cyclic region bracketed immediately following the term “cyclo.” For certain peptides, the residue Abu is present where indicated, whereas in other embodiments, e.g., those related to the non-cyclized form, the Abu may be referred to as a hSer(Cl) or homoSer residue.
# DB Cells IL23R pSTAT3 Cell Assay
# IL-23 plays a central role in supporting and maintaining Th17 differentiation in vivo. This process is thought to be mediated primarily through the Signal Transducer and Activator of Transcription 3 (STAT3), with phosphorylation of STAT3 (to yield pSTAT3) leading to upregulation of RORC and pro-inflammatory IL-17. This cell assay examines the levels of pSTAT3 in IL-23R-expressing DB cells when stimulated with IL-23 in the presence of test compounds. Serial dilutions of test peptides and IL-23 (Humanzyme #HZ-1261) at a final concentration of 0.5 nM, were added to each well in a 96 well tissue culture plate (Corning #CLS3894). DB cells (ATCC #CRL-2289), cultured in RPMI-1640 medium (Thermo Scientific #11875093) supplemented with 10% FBS, were added at 5×10E5 cells/well and incubated for 30 minutes at 37° C. in a 5% CO2 humidified incubator. Changes in phospho-STAT3 levels in the cell lysates were detected using the Cisbio HTRF pSTAT3 (Tyr705) Cellular Assay Kit (Cisbio #62AT3PEH), according to manufacturer's Two Plate Assay protocol.
row,SMILES,IC50 [nM]
1,CCCCCCCC(=O)NCCCC[C@@H]1NC(=O)[C@H](Cc2c[nH]c3c(C)cccc23)NC(=O)[C@H]([C@@H](C)O)NC(=O)[C@H](CC(N)=O)NC(=O)[C@@H](NC(C)=O)C(C)(C)SSC(C)(C)[C@@H](C(=O)N[C@@H](Cc2ccc(OCCN)cc2)C(=O)N[C@@H](Cc2ccc3ccccc3c2)C(=O)N[C@@](C)(CCCCN)C(=O)N[C@@H](CCCCNC(C)=O)C(=O)N[C@@H](CC(N)=O)C(=O)N[C@H](CC(C)C)C(N)=O)NC1=O [compound 317],1 to 10

# Same assay, conditions: Table E3; DB cells, IL-23 0.5 nM, 30 minutes at 37° C.; read-out: pStat3 HTRF (IC50)
row,IC50 [nM],SMILES
1,1 to 10,CC(=O)N[C@H](CCCNC(=N)N)C(=O)N[C@H]1CCSC[C@@H](C(=O)N[C@@H](Cc2ccc(OCCN)cc2)C(=O)N[C@@H](Cc2ccc3ccccc3c2)C(=O)NC2(C(=O)N[C@@H](CCC(=O)O)C(=O)N[C@@H](CC(N)=O)C(=O)NCCC(N)=O)CCOCC2)NC(=O)[C@H](CCC(N)=O)NC(=O)[C@H](Cc2c[nH]c3c(C)cccc23)NC(=O)[C@H]([C@@H](C)O)NC(=O)[C@H](CCC(N)=O)NC1=O [compound 203]
2,1 to 10,CC(=O)NCCCC[C@H](NC(=O)[C@](C)(CCCCN)NC(=O)[C@H](Cc1ccc2ccccc2c1)NC(=O)[C@H](Cc1ccc(OCCN)cc1)NC(=O)[C@H]1NC(=O)[C@H](CCC(N)=O)NC(=O)[C@H](Cc2c[nH]c3ccc(C#N)cc23)NC(=O)[C@H]([C@@H](C)O)NC(=O)[C@H](CC(N)=O)NC(=O)[C@@H](NC(C)=O)C(C)(C)SSC1(C)C)C(=O)N[C@@H](CC(N)=O)C(=O)N[C@H](CCCCN)C(N)=O [compound 296]
3,1 to 10,COc1cccc2c(C[C@@H]3NC(=O)[C@H]([C@@H](C)O)NC(=O)[C@H](CC(N)=O)NC(=O)[C@@H](NC(C)=O)C(C)(C)SSC(C)(C)[C@@H](C(=O)N[C@@H](Cc4ccc(OCCN)cc4)C(=O)N[C@@H](Cc4ccc5ccccc5c4)C(=O)N[C@@](C)(CCCCN)C(=O)N[C@@H](CCCCNC(C)=O)C(=O)N[C@@H](CC(N)=O)C(=O)N[C@H](CCCCN)C(N)=O)NC(=O)[C@H](CCC(N)=O)NC3=O)c[nH]c12 [compound 297]
4,1 to 10,COc1cccc2c(C[C@@H]3NC(=O)[C@H]([C@@H](C)O)NC(=O)[C@H](CC(N)=O)NC(=O)[C@@H](NC(C)=O)C(C)(C)SSC(C)(C)[C@@H](C(=O)N[C@@H](Cc4ccc(OCCN)cc4)C(=O)N[C@@H](Cc4ccc5ccccc5c4)C(=O)N[C@@](C)(CCCCN)C(=O)N[C@@H](CCCCNC(C)=O)C(=O)N[C@@H](CC(N)=O)C(=O)N[C@H](CCCCN)C(N)=O)NC(=O)[C@H](CCCCNC(C)=O)NC3=O)c[nH]c12 [compound 299]
5,1 to 10,CC(=O)NCCCC[C@H](NC(=O)[C@](C)(CCCCN)NC(=O)[C@H](Cc1ccc2ccccc2c1)NC(=O)[C@H](Cc1ccc(OCCN)cc1)NC(=O)[C@H]1NC(=O)[C@H](CCCCNC(=O)[C@H](C)N)NC(=O)[C@H](Cc2c[nH]c3c(C)cccc23)NC(=O)[C@H]([C@@H](C)O)NC(=O)[C@H](CC(N)=O)NC(=O)[C@@H](NC(C)=O)C(C)(C)SSC1(C)C)C(=O)N[C@@H](CC(N)=O)C(=O)N[C@H](CC(C)C)C(N)=O [compound 314]
6,< 1,CC(=O)NCCCC[C@H](NC(=O)[C@](C)(CCCCN)NC(=O)[C@H](Cc1ccc2ccccc2c1)NC(=O)[C@H](Cc1ccc(OCCN)cc1)NC(=O)[C@H]1NC(=O)[C@H](CCCCNC(=O)CC(F)(F)F)NC(=O)[C@H](Cc2c[nH]c3c(C)cccc23)NC(=O)[C@H]([C@@H](C)O)NC(=O)[C@H](CC(N)=O)NC(=O)[C@@H](NC(C)=O)C(C)(C)SSC1(C)C)C(=O)N[C@@H](CC(N)=O)C(=O)N[C@H](CC(C)C)C(N)=O [compound 319]
7,1 to 10,CC(=O)NCCCC[C@@H]1NC(=O)[C@H](Cc2c[nH]c3c(C)cccc23)NC(=O)[C@H]([C@@H](C)O)NC(=O)[C@H](CCC(N)=O)NC(=O)[C@@H](NC(=O)[C@@H](CCCNC(=N)N)NC(C)=O)CCSC[C@@H](C(=O)N[C@@H](Cc2ccc(OCCN)cc2)C(=O)N[C@@H](Cc2ccc3ccccc3c2)C(=O)N[C@@](C)(CCCCN)C(=O)N[C@@H](CCCCNC(C)=O)C(=O)N[C@@H](CC(N)=O)C(=O)N[C@H](CCCCN)C(=O)N(C)CC(N)=O)NC1=O [compound 323] (Ac-[dR][Abu(4-yl)]QT[Trp(7-Me)]K(Ac)C[AEF][2Nal][αMeK]K(Ac)N[dK][Sar]-NH2; thioether 2-7)
8,10 to 100,CC(=O)NCCCC[C@@H]1NC(=O)[C@H](Cc2c[nH]c3c(C)cccc23)NC(=O)[C@H]([C@@H](C)O)NC(=O)[C@H](CCC(N)=O)NC(=O)[C@@H](NC(=O)[C@@H](CCCNC(=N)N)NC(C)=O)CCSC[C@@H](C(=O)N[C@@H](Cc2ccc(OCCN)cc2)C(=O)N[C@@H](Cc2ccc3ccccc3c2)C(=O)N[C@@](C)(CCCCN)C(=O)N[C@@H](CCCCNC(C)=O)C(=O)N[C@@H](CC(N)=O)C(=O)N[C@@](C)(Cc2ccccc2)C(N)=O)NC1=O [compound 327] (Ac-[dR][Abu(4-yl)]QT[Trp(7-Me)]K(Ac)C[AEF][2Nal][αMeK]K(Ac)N[αMeF]-NH2; thioether 2-7)
9,1 to 10,CC(=O)NCCCC[C@H](NC(=O)[C@](C)(CCCCN)NC(=O)[C@H](Cc1ccc2ccccc2c1)NC(=O)[C@H](Cc1ccc(OCCN)cc1)NC(=O)[C@H]1NC(=O)[C@H](CCCNC(N)=O)NC(=O)[C@H](Cc2c[nH]c3c(C)cccc23)NC(=O)[C@H]([C@@H](C)O)NC(=O)[C@H](CC(N)=O)NC(=O)[C@@H](NC(C)=O)C(C)(C)SSC1(C)C)C(=O)N[C@@H](CC(N)=O)C(=O)N(C)CC(N)=O [compound 339] (Ac-[Pen]NT[Trp(7-Me)][Cit][Pen][AEF][2Nal][αMeK]K(Ac)N[Sar]-NH2; disulfide 1-6)
10,< 1,CC(=O)NCCCC[C@H](NC(=O)[C@](C)(CCCCN)NC(=O)[C@H](Cc1ccc2ccccc2c1)NC(=O)[C@H](Cc1ccc(OCCN)cc1)NC(=O)[C@H]1NC(=O)[C@H](CCCNC(N)=O)NC(=O)[C@H](Cc2c[nH]c3c(C)cccc23)NC(=O)[C@H]([C@@H](C)O)NC(=O)[C@H](CC(N)=O)NC(=O)[C@@H](NC(C)=O)C(C)(C)SSC1(C)C)C(=O)N[C@@H](CC(N)=O)C(=O)NC(C)(C)C(=O)NCCC(N)=O [compound 340] (Ac-[Pen]NT[Trp(7-Me)][Cit][Pen][AEF][2Nal][αMeK]K(Ac)N[Aib][βAla]-NH2; disulfide 1-6)
11,< 1,CC(=O)NCCCC[C@H](NC(=O)[C@](C)(CCCCN)NC(=O)[C@H](Cc1ccc2ccccc2c1)NC(=O)[C@H](Cc1ccc(OCCN)cc1)NC(=O)[C@H]1NC(=O)[C@H](CCCNC(N)=O)NC(=O)[C@H](Cc2c[nH]c3c(C)cccc23)NC(=O)[C@H]([C@@H](C)O)NC(=O)[C@H](CC(N)=O)NC(=O)[C@@H](NC(C)=O)C(C)(C)SSC1(C)C)C(=O)N[C@@H](CC(N)=O)C(=O)NC(C)(C)C(=O)NCC(N)=O [compound 341] (Ac-[Pen]NT[Trp(7-Me)][Cit][Pen][AEF][2Nal][αMeK]K(Ac)N[Aib]G-NH2; disulfide 1-6)
12,< 1,CC(=O)NCCCC[C@H](NC(=O)[C@](C)(CCCCN)NC(=O)[C@H](Cc1ccc2ccccc2c1)NC(=O)[C@H](Cc1ccc(OCCN)cc1)NC(=O)[C@H]1NC(=O)[C@H](CCCNC(N)=O)NC(=O)[C@H](Cc2c[nH]c3c(C)cccc23)NC(=O)[C@H]([C@@H](C)O)NC(=O)[C@H](CC(N)=O)NC(=O)[C@@H](NC(C)=O)C(C)(C)SSC1(C)C)C(=O)N[C@@H](CC(N)=O)C(=O)NC(C)(C)C(=O)N[C@@H](C)C(N)=O [compound 342] (Ac-[Pen]NT[Trp(7-Me)][Cit][Pen][AEF][2Nal][αMeK]K(Ac)N[Aib]A-NH2; disulfide 1-6)
13,1 to 10,CC(=O)NCCCC[C@H](NC(=O)[C@](C)(CCCCN)NC(=O)[C@H](Cc1ccc2ccccc2c1)NC(=O)[C@H](Cc1ccc(OCCN)cc1)NC(=O)[C@H]1NC(=O)[C@H](CCCNC(N)=O)NC(=O)[C@H](Cc2c[nH]c3c(C)cccc23)NC(=O)[C@H]([C@@H](C)O)NC(=O)[C@H](CC(N)=O)NC(=O)[C@@H](NC(C)=O)C(C)(C)SSC1(C)C)C(=O)N[C@@H](CC(N)=O)C(=O)NC(C)(C)C(=O)N[C@@H](CCCNC(=N)N)C(N)=O [compound 343] (Ac-[Pen]NT[Trp(7-Me)][Cit][Pen][AEF][2Nal][αMeK]K(Ac)N[Aib]R-NH2; disulfide 1-6)
